The values below come from patent US10219516B2, “Molecules having pesticidal utility, and intermediates, compositions, and processes, related thereto” (priority 2015, dated 2019).

Format in all cases: in vivo
In assay [1] the test system is Beet Armyworm (Spodoptera exigua, LAPHEG). The assay can be described thus: Bioassay on Beet Armyworm (BAW), 128-well diet tray assay. To be noted: Species BAW (Beet Armyworm), read-out: BAW (Biological Results, rating). The method in brief: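 Second instar larvae were exposed to diet treated at 50 μg/cm^2 for five to seven days at 25° C.; mortality was averaged over eight wells.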

The test system of assay [2] is Cabbage Looper (Trichoplusia ni, TRIPNI). Put plainly: Bioassay on Cabbage Looper (CL), 128-well diet tray assay. To be noted: Trichoplusia ni; Species CL (Cabbage Looper); read-out: CL (Biological Results, rating). The method in brief: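 Test molecule is dissolved in 90:10 acetone-water and applied at 50 μg/cm^2 onto artificial diet, then dried. One to five second-instar larvae go into each of eight wells. Trays, sealed but vented, stay at 25° C., 14:10 light-dark, five to seven days, after which mortality is averaged.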

For assay [3], the system named is Yellow Fever Mosquito (Aedes aegypti, AEDSAE). Put plainly: Bioassay on Yellow Fever Mosquito (YFM), 96-well plate larval assay. The conditions noted are these: Species YFM (Yellow Fever Mosquito). The method in brief:
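Each well was scored for mortality after 3 days at room temperature under a non-evaporative lid. Test molecules came from DMSO masters (4000 ppm stock) diluted with water/acetone 90:10 and dispensed into six replicate plates, which were then infested with roughly 1-day-old larvae in liver-powder water.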

As to `CC(=O)Nc1ccc(NC(=O)c2cc(NC(=O)[C@H]3[C@H](c4ccc(F)c(Cl)c4)C3(Cl)Cl)ccc2Cl)cc1` (relative stereo) [F260, trans-N-(4-Acetamidophenyl)-2-chloro-5-(2,2-dichloro-3-(3-chloro-4-fluorophenyl)cyclopropane-1-carboxamido)benzamide], the pest or weed control at 50 µg/cm2 in assay [1] and in assay [2] was 50 to 100% in each case. In assay [3], the “YFM (Biological Results, rating)” value is given as “A (80-100)”.

As for `CNc1ccc(NC(=O)c2cc(NC(=O)[C@H]3[C@H](c4ccc(F)c(Cl)c4)C3(Cl)Cl)ccc2Cl)cc1` (relative stereo) [F261, trans-2-Chloro-5-(2,2-dichloro-3-(3-chloro-4-fluorophenyl)cyclopropane-1-carboxamido)-N-(4-(methylamino)phenyl)benzamide], the pest or weed control at 50 µg/cm2 in assay [1] and in assay [2] was 50 to 100% in each case. Moreover, the “YFM (Biological Results, rating)” value in assay [3] is reported as “A (80-100)”.

With `Cc1cc(NC(=O)OC(C)(C)C)ccc1NC(=O)c1cccc(NC(=O)[C@H]2[C@H](c3cc(Cl)c(Cl)c(Cl)c3)C2(Cl)Cl)c1` (relative stereo) [F262, trans-tert-Butyl (4-(3-(2,2-dichloro-3-(3,4,5-trichlorophenyl)cyclopropane-1-carboxamido)benzamido)-3-methylphenyl)carbamate], the pest or weed control at 50 µg/cm2 in assay [1] and in assay [2] was 50 to 100% in each case. In assay [3], the “YFM (Biological Results, rating)” value was “B (More than 0-Less than 80)”.

As to `Cc1cc(NC(=O)OC(C)(C)C)ccc1NC(=O)c1cccc(NC(=O)[C@H]2[C@H](c3cc(Cl)cc(Cl)c3)C2(Cl)Cl)c1` (relative stereo) [F263, trans-tert-Butyl (4-(3-(2,2-dichloro-3-(3,5-dichlorophenyl)cyclopropane-1-carboxamido)benzamido)-3-methylphenyl)carbamate], the pest or weed control at 50 µg/cm2 in assay [1] and in assay [2] was 50 to 100% each time. Besides, in assay [3], the “YFM (Biological Results, rating)” value is “B (More than 0-Less than 80)”.

Turning to `Cc1cc(N)ccc1NC(=O)c1cccc(NC(=O)[C@H]2[C@H](c3cc(Cl)c(Cl)c(Cl)c3)C2(Cl)Cl)c1` (relative stereo) [F264, trans-N-(4-Amino-2-methylphenyl)-3-(2,2-dichloro-3-(3,4,5-trichlorophenyl)cyclopropane-1-carboxamido)benzamide], the pest or weed control at 50 µg/cm2 in assay [1] and in assay [2] was 50 to 100% each time. Also, the “YFM (Biological Results, rating)” value in assay [3] is “A (80-100)”.

Take `Cc1cc(N)ccc1NC(=O)c1cccc(NC(=O)[C@H]2[C@H](c3ccc(Cl)c(Cl)c3)C2(Cl)Cl)c1` (relative stereo) [F265, trans-N-(4-Amino-2-methylphenyl)-3-(2,2-dichloro-3-(3,4-dichlorophenyl)cyclopropane-1-carboxamido)benzamide]: the pest or weed control at 50 µg/cm2 in assay [1] and in assay [2] was 50 to 100% in each case. In addition, the “YFM (Biological Results, rating)” value in assay [3] is listed as “A (80-100)”.

In the case of `Cc1cc(N)ccc1NC(=O)c1cccc(NC(=O)[C@H]2[C@H](c3cc(Cl)cc(Cl)c3)C2(Cl)Cl)c1` (relative stereo) [F266, trans-N-(4-Amino-2-methylphenyl)-3-(2,2-dichloro-3-(3,5-dichlorophenyl)cyclopropane-1-carboxamido)benzamide], the pest or weed control at 50 µg/cm2 in assay [1] and in assay [2] was 50 to 100% in each case. Besides, in assay [3], the “YFM (Biological Results, rating)” value is on record as “A (80-100)”.

For `N#Cc1cc(F)ccc1NC(=O)c1cccc(NC(=O)[C@H]2[C@H](c3cc(Cl)c(Cl)c(Cl)c3)C2(Cl)Cl)c1` (relative stereo) [F267, trans-N-(2-cyano-4-fluorophenyl)-3-(2,2-dichloro-3-(3,4,5-trichlorophenyl)cyclopropane-1-carboxamido)benzamide], the pest or weed control at 50 µg/cm2 in assay [1] and in assay [2] was 50 to 100% each time. The “YFM (Biological Results, rating)” value in assay [3] was “B (More than 0-Less than 80)”.

In the case of `N#Cc1cc(F)ccc1NC(=O)c1cccc(NC(=O)[C@H]2[C@H](c3ccc(Cl)c(Cl)c3)C2(Cl)Cl)c1` (relative stereo) [F268, trans-N-(2-Cyano-4-fluorophenyl)-3-(2,2-dichloro-3-(3,4-dichlorophenyl)cyclopropane-1-carboxamido)benzamide], the pest or weed control at 50 µg/cm2 in assay [1] and in assay [2] was 50 to 100% each time. Further, the “YFM (Biological Results, rating)” value in assay [3] was “A (80-100)”.

Regarding `O=C(Nc1ccc(F)cc1)c1cc(NC(=O)[C@H]2[C@H](c3ccc(Br)c(Cl)c3)C2(Cl)Cl)ccc1Cl` (relative stereo) [F270, 5-(trans-3-(4-Bromo-3-chlorophenyl)-2,2-dichlorocyclopropane-1-carboxamido)-2-chloro-N-(4-fluorophenyl)benzamide], the pest or weed control at 50 µg/cm2 in assay [1] and in assay [2] was 50 to 100% throughout. In addition, the “YFM (Biological Results, rating)” value in assay [3] was “A (80-100)”.

For `N#Cc1cc(F)ccc1NC(=O)c1cccc(NC(=O)[C@H]2[C@H](c3cc(Cl)cc(Cl)c3)C2(Cl)Cl)c1` (relative stereo) [F271, trans-N-(2-Cyano-4-fluorophenyl)-3-(2,2-dichloro-3-(3,5-dichlorophenyl)cyclopropane-1-carboxamido)benzamide], the pest or weed control at 50 µg/cm2 in assay [1] and in assay [2] was 50 to 100% throughout. Also, the “YFM (Biological Results, rating)” value in assay [3] is listed as “A (80-100)”.

As to `Cc1cc(F)ccc1NC(=O)c1cccc(NC(=O)[C@H]2[C@H](c3cc(Cl)cc(Cl)c3)C2(Cl)Cl)c1` (relative stereo) [F272, trans-3-(2,2-Dichloro-3-(3,5-dichlorophenyl)cyclopropane-1-carboxamido)-N-(4-fluoro-2-methylphenyl)benzamide], the pest or weed control at 50 µg/cm2 in assay [1] and in assay [2] was 50 to 100% in each case. Moreover, the “YFM (Biological Results, rating)” value in assay [3] was “A (80-100)”.

As for `CN(C(=O)c1cccc(NC(=O)[C@H]2[C@H](c3cc(Cl)cc(Cl)c3)C2(Cl)Cl)c1)c1ccc(F)cc1` (relative stereo) [F273, trans-3-(2,2-Dichloro-3-(3,5-dichlorophenyl)cyclopropane-1-carboxamido)-N-(4-fluorophenyl)-N-methylbenzamide], the pest or weed control at 50 µg/cm2 in assay [1] and in assay [2] was 50 to 100% in each case. Also, the “YFM (Biological Results, rating)” value in assay [3] is recorded as “A (80-100)”.

Consider `O=C(Nc1ccc(F)cc1Cl)c1cccc(NC(=O)[C@H]2[C@H](c3cc(Cl)cc(Cl)c3)C2(Cl)Cl)c1` (relative stereo) [F274, trans-N-(2-Chloro-4-fluorophenyl)-3-(2,2-dichloro-3-(3,5-dichlorophenyl)cyclopropane-1-carboxamido)benzamide], for which the pest or weed control at 50 µg/cm2 in assay [1] and in assay [2] was 50 to 100% throughout. For the same compound, in assay [3], the “YFM (Biological Results, rating)” value is recorded as “A (80-100)”.

As for `N#Cc1ccc(NC(=O)c2cc(NC(=O)[C@H]3[C@H](c4cc(Cl)cc(Cl)c4)C3(Cl)Cl)ccc2Cl)c(C#N)c1` (relative stereo) [F287, trans-2-Chloro-5-(2,2-dichloro-3-(3,5-dichlorophenyl)cyclopropane-1-carboxamido)-N-(2,4-dicyanophenyl)benzamide], the pest or weed control at 50 µg/cm2 in assay [1] and in assay [2] was 50 to 100% each time. Moreover, in assay [3], the “YFM (Biological Results, rating)” value was “A (80-100)”.

Consider `COC(=O)CNc1ccc(NC(=O)c2cc(NC(=O)[C@H]3[C@H](c4cc(Cl)cc(Cl)c4)C3(Cl)Cl)ccc2Cl)c(C)c1` (relative stereo) [F288, trans-methyl (4-(2-chloro-5-(2,2-dichloro-3-(3,5-dichlorophenyl)cyclopropane-1-carboxamido)benzamido)-3-methylphenyl)glycinate], for which the pest or weed control at 50 µg/cm2 in assay [1] and in assay [2] was 50 to 100% in each case. Further, in assay [3], the “YFM (Biological Results, rating)” value is “A (80-100)”.

As to `C=Cc1ccc([C@H]2[C@H](C(=O)Nc3ccc(Cl)c(C(=O)Nc4ccc(F)cc4)c3)C2(Cl)Cl)cc1Cl` (relative stereo) [F289, 2-chloro-5-(trans-2,2-dichloro-3-(3-chloro-4-vinylphenyl)cyclopropane-1-carboxamido)-N-(4-fluorophenyl)benzamide], the pest or weed control at 50 µg/cm2 in assay [1] and in assay [2] was 50 to 100% throughout. The “YFM (Biological Results, rating)” value in assay [3] was “A (80-100)”.

Turning to `O=C(Nc1ccc([N+](=O)[O-])cn1)c1cc(NC(=O)[C@H]2[C@H](c3cc(Cl)cc(Cl)c3)C2(Cl)Cl)ccc1Cl` (relative stereo) [F293, 2-Chloro-5-(trans-2,2-dichloro-3-(3,5-dichlorophenyl)cyclopropane-1-carboxamido)-N-(5-nitropyridin-2-yl)benzamide], the pest or weed control at 50 µg/cm2 in assay [1] and in assay [2] was 50 to 100% each time. In addition, the “YFM (Biological Results, rating)” value in assay [3] is “A (80-100)”.

As for `O=C(Nc1ncccn1)c1cc(NC(=O)[C@H]2[C@H](c3cc(Cl)cc(Cl)c3)C2(Cl)Cl)ccc1Cl` (relative stereo) [F294, trans-2-Chloro-5-(2,2-dichloro-3-(3,5-dichlorophenyl)cyclopropane-1-carboxamido)-N-(pyrimidin-2-yl)benzamide], the pest or weed control at 50 µg/cm2 in assay [1] and in assay [2] was 50 to 100% in each case. Besides, the “YFM (Biological Results, rating)” value in assay [3] is on record as “A (80-100)”.
